We go through nine molecules from ChEMBL document CHEMBL1201862, “PubChem BioAssay data set” (2004).

Test systems include COLO 205; NCI-H522; NCI-H23; EKVX; A549; M19-MEL; DMS-114; HCT-116; HCT-15; CCRF-CEM; M14; NCI-H226; SK-MEL-28; NCI-H460; HOP-62; LOX IMVI; OVCAR-5.
Common to all, as to experiment: NCI anticancer screen, dose series, 48 h

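In this assay, cells in 96-well plates receive the compound at five concentrations for 48 hours. Endpoints are linearly interpolated between the surrounding concentrations. GI50 marks 50% less growth.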 Activity calls are given as the source filed them. Cut-off read from the data, not from the text of the source: active = GI50 up to about 1.1 µM and inactive = higher. Where only a bound is given, the exact number is not on record here.

As for `N=C1c2ccccc2C(=O)c2c(NCCNCCO)ccc(O)c21`, the GI50 in the experiment with COLO 205 is 4.73 µM (inactive); with NCI-H522 it was 3.4 µM (inactive); in the experiment on NCI-H23 it was 9.16 µM (inactive); with EKVX, 12 µM (inactive); with A549, 6.3 µM (inactive); with M19-MEL, 5.55 µM (inactive). The GI50 is 3.93 µM (inactive) in the experiment on DMS-114; 3.27 µM (inactive) with HCT-116; 25.5 µM in the experiment on HCT-15; 9.62 µM (inactive) with CCRF-CEM; 10.3 µM (inactive) with M14; 9.84 µM (inactive) in the experiment on NCI-H226. The GI50 is 8.15 µM (inactive) in the experiment on SK-MEL-28; 5.06 µM (inactive) in the experiment with NCI-H460; 4.91 µM (inactive) with HOP-62; 4.15 µM (inactive) in the experiment with LOX IMVI; 16 µM (inactive) in the experiment on OVCAR-5.

As to `[N-]=[N+]=Nc1ccc(S(=O)(=O)Oc2cc(OS(=O)(=O)c3ccc(N=[N+]=[N-])cc3)cc(OS(=O)(=O)c3ccc(N=[N+]=[N-])cc3)c2)cc1`, the GI50 was > 10 µM (inactive) with COLO 205; > 100 µM (inactive) with NCI-H522; > 100 µM (inactive) in the experiment on NCI-H23; > 100 µM (inactive) in the experiment on EKVX; > 100 µM (inactive) in the experiment with A549; > 100 µM (inactive) in the experiment with M19-MEL. The GI50 in the experiment with DMS-114 was > 100 µM (inactive); with HCT-116, > 100 µM (inactive); in the experiment with HCT-15, greater than 100 µM; in the experiment on CCRF-CEM it was > 100 µM (inactive); with M14, > 100 µM (inactive); with NCI-H226, > 10 µM (inactive). The GI50 with SK-MEL-28, in the experiment with NCI-H460, in the experiment with HOP-62, in the experiment with LOX IMVI and with OVCAR-5 was > 100 µM (inactive) in each case.

As to `COc1cccc(/C(Cl)=C(\C=O)c2cccc(OC)c2)c1`, the GI50 is 11.9 µM (inactive) in the experiment on COLO 205; 2.68 µM (inactive) in the experiment with NCI-H522; 5.77 µM (inactive) with NCI-H23; 14.9 µM (inactive) in the experiment on EKVX; 12.1 µM (inactive) in the experiment with A549; 12.7 µM (inactive) with M19-MEL. In addition, the GI50 was 3.12 µM (inactive) in the experiment on DMS-114; 3.28 µM (inactive) with HCT-116; 5.6 µM in the experiment on HCT-15; 3.97 µM (inactive) with CCRF-CEM; 13.1 µM (inactive) with M14; 11 µM (inactive) with NCI-H226. For the same molecule, the GI50 was 11.7 µM (inactive) in the experiment on SK-MEL-28; 12.7 µM (inactive) in the experiment with NCI-H460; 12.3 µM (inactive) in the experiment with HOP-62; 6.71 µM (inactive) in the experiment on LOX IMVI; 19.6 µM (inactive) in the experiment with OVCAR-5.

`CC(C)(C)c1cc2c3c(c1)c(=O)c1cccc4c(O)c5cccc(c2=O)c5c-3c41`: the GI50 with COLO 205 was > 100 µM (inactive); in the experiment with NCI-H522, > 100 µM (inactive); in the experiment with NCI-H23 it was 68.4 µM (inactive); in the experiment with EKVX, > 100 µM (inactive); with A549 it was > 100 µM (inactive); in the experiment on M19-MEL it was > 100 µM (inactive). Further, the GI50 in the experiment with DMS-114 is 10 µM (inactive); with HCT-116 it was 59.7 µM (inactive); in the experiment on HCT-15, 48.5 µM; in the experiment with CCRF-CEM, 45.1 µM (inactive); in the experiment with M14 it was 40.7 µM (inactive); in the experiment with NCI-H226 it was > 100 µM (inactive). Further, the GI50 with SK-MEL-28 is 10 µM (inactive); in the experiment on NCI-H460 it was 54.1 µM (inactive); in the experiment with HOP-62, 47 µM (inactive); with LOX IMVI, 41.2 µM (inactive); in the experiment on OVCAR-5, 92.5 µM (inactive).

Regarding `COc1c(C)c(O)c2c(c1C)OC(c1ccccc1)CC2=O` (configuration not stated), the GI50 is 45.9 µM (inactive) with NCI-H522; 42.5 µM (inactive) in the experiment with NCI-H23; 65.2 µM (inactive) with EKVX; 52.5 µM (inactive) in the experiment with A549; 38.1 µM (inactive) with M19-MEL; 40.8 µM (inactive) in the experiment with DMS-114. The GI50 in the experiment on HCT-116 was 47.8 µM (inactive); in the experiment on HCT-15, 30.5 µM; in the experiment on CCRF-CEM, 31.4 µM (inactive); in the experiment on M14 it was 67.1 µM (inactive); in the experiment with NCI-H226 it was 38.9 µM (inactive); with SK-MEL-28 it was 50.4 µM (inactive). Besides, the GI50 in the experiment on NCI-H460 was 36.8 µM (inactive); in the experiment on HOP-62 it was > 100 µM (inactive); with LOX IMVI, 46.3 µM (inactive); with OVCAR-5 it was 61.8 µM (inactive).

`O=c1/c(=C/c2ccccc2[N+](=O)[O-])sc2nnc(-c3ccco3)n12`: the GI50 was 30.4 µM (inactive) in the experiment with COLO 205; 18.2 µM (inactive) with NCI-H522; 22.2 µM (inactive) in the experiment on NCI-H23; 36.2 µM (inactive) in the experiment on EKVX; 19.8 µM (inactive) in the experiment on A549; 19.5 µM (inactive) in the experiment with M19-MEL. Besides, the GI50 with DMS-114 is 20 µM (inactive); with HCT-116, 26.9 µM (inactive); in the experiment on HCT-15, 28.2 µM; in the experiment with CCRF-CEM, 23.1 µM (inactive); with M14 it was 18 µM (inactive); in the experiment with NCI-H226, 23 µM (inactive). Moreover, the GI50 was 21.8 µM (inactive) with SK-MEL-28; 25.2 µM (inactive) in the experiment on NCI-H460; 19.3 µM (inactive) in the experiment on HOP-62; 16.9 µM (inactive) in the experiment on LOX IMVI; 50.2 µM (inactive) with OVCAR-5.

In the case of `COc1ccc(C)cc1-c1ccc(-c2cc(C)ccc2OC)o1`, the GI50 in the experiment on COLO 205 is > 100 µM (inactive); in the experiment on NCI-H522 it was > 100 µM (inactive); with NCI-H23 it was > 100 µM (inactive); with EKVX, > 100 µM (inactive); with A549 it was > 100 µM (inactive); with M19-MEL, 54.6 µM (inactive). Besides, the GI50 is > 100 µM (inactive) in the experiment on DMS-114; > 100 µM (inactive) in the experiment on HCT-116; greater than 100 µM with HCT-15; 68.4 µM (inactive) with CCRF-CEM; > 100 µM (inactive) in the experiment with M14; > 100 µM (inactive) in the experiment on NCI-H226. Further, the GI50 is > 100 µM (inactive) in the experiment with SK-MEL-28; > 100 µM (inactive) in the experiment with NCI-H460; > 100 µM (inactive) with HOP-62; > 100 µM (inactive) in the experiment with LOX IMVI; 87.1 µM (inactive) in the experiment on OVCAR-5.

With `CC(=O)OCC1OC(n2ccc(=O)[nH]c2=O)C(OC(C)=O)C(OC(C)=O)C1OC(C)=O` (configuration not stated), the GI50 with COLO 205, in the experiment with NCI-H522, in the experiment on NCI-H23, with EKVX, in the experiment on A549 and in the experiment on M19-MEL was > 100 µM (inactive) throughout. For the same molecule, the GI50 in the experiment on DMS-114 was > 100 µM (inactive); with HCT-116, > 100 µM (inactive); in the experiment on HCT-15, greater than 100 µM; with CCRF-CEM it was > 100 µM (inactive); in the experiment with M14 it was > 100 µM (inactive); with NCI-H226, 9.16 µM (inactive). Moreover, the GI50 in the experiment with SK-MEL-28, with NCI-H460, in the experiment on HOP-62, with LOX IMVI and in the experiment on OVCAR-5 was > 100 µM (inactive) each time.

As for `COc1cc(/C=C/c2ccc(Br)cc2)cc(OC)c1OC`, the GI50 is 8.83 µM (inactive) in the experiment with COLO 205; 11.8 µM (inactive) in the experiment on NCI-H522; 16.3 µM (inactive) in the experiment with NCI-H23; 11.2 µM (inactive) in the experiment on EKVX; 11.7 µM (inactive) with A549; 13.9 µM (inactive) in the experiment with M19-MEL. Also, the GI50 is 10.4 µM (inactive) in the experiment on DMS-114; 4.55 µM (inactive) in the experiment on HCT-116; 7 µM with HCT-15; 11.8 µM (inactive) in the experiment on CCRF-CEM; 14.4 µM (inactive) in the experiment on M14; 15.9 µM (inactive) in the experiment on NCI-H226. For the same molecule, the GI50 in the experiment with SK-MEL-28 is 6.21 µM (inactive); with NCI-H460, 11.6 µM (inactive); with HOP-62 it was 13.7 µM (inactive); with LOX IMVI, 14.1 µM (inactive); with OVCAR-5, 16.6 µM (inactive).
